The subject of experiment [1] is NCI-H1299 cells. Put plainly: MTT based cell viability assay on NCI-H1299 cells. The note with it: Homo sapiens, NCI-H1299 cells, read-out: IC50, growth inhibition of NCI-H1299 cells. The procedure: Determination of the cell growth inhibiting activity of 6-(2-chlorophenyl)-2-((4-(4-methylpiperazin-1-yl)phenyl)amino)-8,9-dihydroimidazo[1,2-a]pyrimido[5,4-e]pyrimidin-5(6H)-one and analogs on NCI-H1299 cells using a MTT based cell viability assay
(§1) The thawed NCI-H1299 cells were cultured and passaged to the third generation, and the growth state was good and the confluence was about 90%, which began to be used in the experiment. The NCI-H1299 cells were digested with trypsin, centrifuged at 800 rpm for 5 min, the supernatant was discarded, resuspended with fresh culture group, and counted. 1000 Cells are seeded to each well of a 96-well plate. The cells are incubated at 37° C. in a 5% CO2 cell culture incubator overnight. The tested sample (including the tested compound and the reference compound AZD1775) was diluted continuously to 8 concentrations (the last concentration was negative control of DMSO) with a 1:3 and 1:10 dilution in DMSO respectively: 10 μM, 3.3 μM, 1 μM, 0.33 μM, 0.1 μM, 0.033 μM, 0.01 μM, 0 μM (the final concentration of DMSO was 1‰). 5 μL of each concentration was added to 120 μL of culture medium (25 times diluted), and the mixture was shaken well. The overnight cells were taken and the culture medium was removed, 195 μL of fresh culture medium was added to each well, and 5 μL of diluted culture medium containing the corresponding concentration of the tested sample was added respectively, and the culture plate was then placed in the 5% CO2 cell culture incubator at 37° C. for 3 d. After removing the original solution and adding 100 μL of fresh serum-free DMEM culture medium containing MTT (0.5 mg/mL) per well, the culture was continued. The original solution was removed after 4 hrs and 100 μl DMSO was added to each well. The 96-well cell culture plates were shaken away from light for 10 min and readed in a multifunctional reader at 552/630/690 nm to give absorption values (OD values). The data were analyzed using a commercial graphic software (Graph Pad Prism 5.0) and the inhibitory activity of the compound on cell proliferation was plotted in terms of cell survival and compound concentration. The IC50 values were fitted by the S-shaped dose-response curve equation as follows: Y=100/(1+10^(Log C−Log IC50)), where C was the concentration of testing compounds.

Experiment [2] addresses Wee1 (h) (Homo sapiens, UniProt P30291). Briefly: Wee1 kinase (h) detection method, [γ-33P]-ATP filter assay. The experiment is classed as biochemical. The procedure:
Determination of the inhibitory effect of 6-(2-chlorophenyl)-2-((4-(4-methylpiperazin-1-yl)phenyl)amino)-8,9-dihydroimidazo[1,2-a]pyrimido[5,4-e]pyrimidin-5(6H)-one and Analogs on the Enzyme Activity of Wee1 Kinase by Using the Wee1 Kinase (h) Detection Method
Then the stock solution of all compounds under test with 50× concentration in 100% DMSO was added to make the final concentration of 10/1/0.1/0.01 μM, and then mixed the mixture well. The reaction is initiated by the addition of the Mg/ATP mix. After incubation for 40 minutes at room temperature, the reaction is stopped by the addition of phosphoric acid to a concentration of 0.5%. […] Each compound sample is duplicated in duplicate. The negative control was lack of all the components of Wee1 enzyme, and the positive was addition of 30% phosphoric acid to terminate the reaction. The Wee1 inhibitor AZD1775 was detected at 10 μM at the same experiment condition.

In experiment [3] the test system is LoVo cells. Put plainly: MTT based cell viability assay on LoVo cells. The note with it: Homo sapiens, LoVo, 72 h, 3 d, read-out: IC50, growth inhibition of LoVo cells. The procedure:
Determination of the cell growth inhibiting activity of 6-(2-chlorophenyl)-2-((4-(4-methylpiperazin-1-yl)phenyl)amino)-8,9-dihydroimidazo[1,2-a]pyrimido[5,4-e]pyrimidin-5(6H)-one and analogs on LoVo cells using a MTT based cell viability assay
as §1, with “LoVo” for “NCI-H1299”, “medium,” for “group,”, “6000” for “1000”, “1%).” for “1‰).”, “C-Log” for “C−Log”

Wee1 (h), sequence (P30291 whole entry): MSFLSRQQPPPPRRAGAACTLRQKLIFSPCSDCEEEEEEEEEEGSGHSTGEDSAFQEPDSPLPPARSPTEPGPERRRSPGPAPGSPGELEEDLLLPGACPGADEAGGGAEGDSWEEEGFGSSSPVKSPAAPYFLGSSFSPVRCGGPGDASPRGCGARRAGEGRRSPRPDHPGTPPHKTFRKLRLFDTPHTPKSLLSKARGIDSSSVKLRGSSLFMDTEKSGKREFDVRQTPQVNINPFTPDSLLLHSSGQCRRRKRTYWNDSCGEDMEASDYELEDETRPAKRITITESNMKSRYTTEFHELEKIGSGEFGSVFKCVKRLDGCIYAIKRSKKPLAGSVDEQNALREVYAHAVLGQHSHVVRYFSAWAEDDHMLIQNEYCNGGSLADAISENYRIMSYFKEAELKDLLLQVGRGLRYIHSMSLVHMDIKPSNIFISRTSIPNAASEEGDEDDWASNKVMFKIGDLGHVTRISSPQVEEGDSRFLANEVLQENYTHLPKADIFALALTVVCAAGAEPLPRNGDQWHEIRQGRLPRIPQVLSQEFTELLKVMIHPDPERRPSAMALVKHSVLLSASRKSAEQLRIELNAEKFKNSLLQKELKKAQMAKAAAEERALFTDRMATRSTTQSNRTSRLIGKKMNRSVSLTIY

In the case of `C=CCN1C(=O)c2cnc(Nc3ccc(N4CCN(C)CC4)cc3)nc2N2CCN=C12` [Example 22, 6-Allyl-2-((4-(4-methylpiperazin-1-yl)phenyl)amino)-8,9-dihydroimidazo[1,2-a]pyrimido[5,4-e]pyrimidin-5(6H)-one], the IC50 was over 10 µM in experiment [1] and over 100 µM in experiment [3]. Moreover, in experiment [2] (C 1 μm compound), the “Inh. (%) of Wee1 kinase enzyme activity” value turned out to be 8%.

Turning to `CN1CCN(c2ccc(Nc3ncc4c(n3)N3CCN=C3N(c3cccs3)C4=O)cc2)CC1` [Example 23, 2-((4-(4-Methylpiperazin-1-yl)phenyl)amino)-6-(thiophen-2-yl)-8,9-dihydroimidazo[1,2-a]pyrimido[5,4-e]pyrimidin-5(6H)-one], the IC50 is over 10 µM in experiment [1] and over 3 µM in experiment [3]. In addition, the “Inh. (%) of Wee1 kinase enzyme activity” value in experiment [2] (C 1 μm compound) turned out to be 22%.

As for `CN1CCN(c2ccc(Nc3ncc4c(n3)N3CC(C)(C)N=C3N(c3c(F)cccc3Cl)C4=O)cc2)CC1` [Example 27, 6-(2-Chloro-6-fluorophenyl)-8,8-dimethyl-2-((4-(4-methylpiperazin-1-yl)phenyl)amino)-8,9-dihydroimidazo[1,2-a]pyrimido[5,4-e]pyrimidin-5(6H)-one], the IC50 in experiment [1] was over 10 µM; in experiment [3] it was over 100 µM. Moreover, in experiment [2] (C 1 μm compound), the “Inh. (%) of Wee1 kinase enzyme activity” value is 17%.

On to `CN1CCN(c2ccc(Nc3ncc4c(n3)N3C(=NCC3(C)C)N(c3c(F)cccc3Cl)C4=O)cc2)CC1` [Example 28, 6-(2-Chloro-6-fluorophenyl)-9,9-dimethyl-2-((4-(4-methylpiperazin-1-yl)phenyl)amino)-8,9-dihydroimidazo[1,2-a]pyrimido[5,4-e]pyrimidin-5(6H)-one], for which the IC50 in experiment [1] was over 3 µM; in experiment [3] it was over 1 µM. Besides, the “Inh. (%) of Wee1 kinase enzyme activity” value in experiment [2] (C 1 μm compound) is given as 67%.

For `C[C@@H]1CN(c2ccc(Nc3ncc4c(n3)N3CCN=C3N(c3c(F)cccc3Cl)C4=O)cc2)C[C@H](C)O1` [Example 32, 6-(2-Chloro-6-fluorophenyl)-2-((4-((2S,6R)-2,6-dimethylmorpholino)phenyl)amino)-8,9-dihydroimidazo[1,2-a]pyrimido[5,4-e]pyrimidin-5(6H)-one], the IC50 was over 10 µM in experiment [1] and 0.836 µM in experiment [3]. Moreover, the “Inh. (%) of Wee1 kinase enzyme activity” value in experiment [2] (C 0.01 μm compound) stood at 19%; in experiment [2] (C 0.1 μm compound) it was 69%; in experiment [2] (C 1 μm compound) it was 94%.

On to `O=C1c2cnc(Nc3ccc(CN4CCOCC4)cc3)nc2N2CCN=C2N1c1c(F)cccc1Cl` [Example 33, 6-(2-Chloro-6-fluorophenyl)-2-((4-(morpholinomethyl)phenyl)amino)-8,9-dihydroimidazo[1,2-a]pyrimido[5,4-e]pyrimidin-5(6H)-one], for which the results for the IC50 in experiment [1] and in experiment [3] were over 10 µM and over 100 µM, respectively. Further, in experiment [2] (C 1 μm compound), the “Inh. (%) of Wee1 kinase enzyme activity” value worked out at 87%.

As for `C[C@@H]1CN(c2ccc(Nc3ncc4c(n3)N3CCN=C3N(c3c(F)cccc3Cl)C4=O)cc2)C[C@H](C)N1C` [Example 34, 6-(2-Chloro-6-fluorophenyl)-2-((4-((3S,5R)-3,4,5-trimethylpiperazin-1-yl)phenyl)amino)-8,9-dihydroimidazo[1,2-a]pyrimido[5,4-e]pyrimidin-5(6H)-one], the IC50 amounted to 0.468 µM in experiment [1] and 0.349 µM in experiment [3]. In addition, the “Inh. (%) of Wee1 kinase enzyme activity” value is 38% in experiment [2] (C 0.01 μm compound), 93% in experiment [2] (C 0.1 μm compound) and 97% in experiment [2] (C 1 μm compound).

Take `CC(C)N1[C@H](C)CN(c2ccc(Nc3ncc4c(n3)N3CCN=C3N(c3c(F)cccc3Cl)C4=O)cc2)C[C@@H]1C` [Example 35, 6-(2-Chloro-6-fluorophenyl)-2-((4-((3S,5R)-4-isopropyl-3,5-dimethylpiperazin-1-yl)phenyl)amino)-8,9-dihydroimidazo[1,2-a]pyrimido[5,4-e]pyrimidin-5(6H)-one]: the figures for the IC50 in experiment [1] and in experiment [3] were 0.287 µM and 0.262 µM, respectively. In addition, the “Inh. (%) of Wee1 kinase enzyme activity” value in experiment [2] (C 0.01 μm compound) was 27%; in experiment [2] (C 0.1 μm compound) it was 82%; in experiment [2] (C 1 μm compound) it was 100%.

In the case of `CN1CCN(c2ccc(Nc3ncc4c(n3)N3CCN=C3N(c3c(F)cccc3Cl)C4=O)c(F)c2)CC1` [Example 36, 6-(2-Chloro-6-fluorophenyl)-2-((2-fluoro-4-(4-methylpiperazin-1-yl)phenyl)amino)-8,9-dihydroimidazo[1,2-a]pyrimido[5,4-e]pyrimidin-5(6H)-one], the figures for the IC50 in experiment [1] and in experiment [3] were over 10 µM and over 100 µM, respectively. Moreover, the “Inh. (%) of Wee1 kinase enzyme activity” value in experiment [2] (C 1 μm compound) turned out to be 0%.

Turning to `C[C@@H]1CN(c2ccc(Nc3ncc4c(n3)N3CCN=C3N(c3c(F)cccc3Cl)C4=O)c(F)c2)C[C@H](C)N1C` [Example 37, 6-(2-Chloro-6-fluorophenyl)-2-((2-fluoro-4-((3S,5R)-3,4,5-trimethylpiperazin-1-yl)phenyl)amino)-8,9-dihydroimidazo[1,2-a]pyrimido[5,4-e]pyrimidin-5(6H)-one], the figures for the IC50 in experiment [1] and in experiment [3] were over 10 µM and over 100 µM, respectively. In addition, the “Inh. (%) of Wee1 kinase enzyme activity” value in experiment [2] (C 1 μm compound) was 1%.

Take `CN1CCN(c2ccc(Nc3ncc4c(n3)N3CCN=C3N(c3c(F)cccc3Cl)C4=O)c(Cl)c2)CC1` [Example 38, 6-(2-Chloro-6-fluorophenyl)-2-((2-chloro-4-(4-methylpiperazin-1-yl)phenyl)amino)-8,9-dihydroimidazo[1,2-a]pyrimido[5,4-e]pyrimidin-5(6H)-one]: the figures for the IC50 in experiment [1] and in experiment [3] were over 10 µM and over 100 µM, respectively. Also, the “Inh. (%) of Wee1 kinase enzyme activity” value in experiment [2] (C 1 μm compound) is reported as 34%.

In the case of `C[C@@H]1CN(c2ccc(Nc3ncc4c(n3)N3CCN=C3N(c3c(F)cccc3Cl)C4=O)c(Cl)c2)C[C@H](C)N1C` [Example 39, 6-(2-Chloro-6-fluorophenyl)-2-((2-chloro-4-((3S,5R)-3,4,5-trimethylpiperazin-1-yl)phenyl)amino)-8,9-dihydroimidazo[1,2-a]pyrimido[5,4-e]pyrimidin-5(6H)-one], the IC50 was over 10 µM in experiment [1] and over 100 µM in experiment [3]. Further, the “Inh. (%) of Wee1 kinase enzyme activity” value in experiment [2] (C 1 μm compound) was 28%.

Usually IC50 stands for the concentration that gives 50% inhibition.

Values taken from patent US11345711B2, “8,9-dihydroimidazo[1,2-a]pyrimido[5,4-e]pyrimidin-5(6H)-ones” (IMPACT THERAPEUTICS (SHANGHAI), INC, priority 2016, dated 2022).
